pIC50: −log10 of the molar value. Where two headings read alike, the source gives them in different places.
Columns and labels:
Assay type in all cases: biochemical
LATS2 = target: T1, LATS2 (Homo sapiens, UniProt Q9NRM7); assay: RBC HotSpot kinase assay (33P-ATP, P81 filter-binding), LATS2; conditions: read-out: LATS2 IC50
T1 sequence (Q9NRM7 1-1088): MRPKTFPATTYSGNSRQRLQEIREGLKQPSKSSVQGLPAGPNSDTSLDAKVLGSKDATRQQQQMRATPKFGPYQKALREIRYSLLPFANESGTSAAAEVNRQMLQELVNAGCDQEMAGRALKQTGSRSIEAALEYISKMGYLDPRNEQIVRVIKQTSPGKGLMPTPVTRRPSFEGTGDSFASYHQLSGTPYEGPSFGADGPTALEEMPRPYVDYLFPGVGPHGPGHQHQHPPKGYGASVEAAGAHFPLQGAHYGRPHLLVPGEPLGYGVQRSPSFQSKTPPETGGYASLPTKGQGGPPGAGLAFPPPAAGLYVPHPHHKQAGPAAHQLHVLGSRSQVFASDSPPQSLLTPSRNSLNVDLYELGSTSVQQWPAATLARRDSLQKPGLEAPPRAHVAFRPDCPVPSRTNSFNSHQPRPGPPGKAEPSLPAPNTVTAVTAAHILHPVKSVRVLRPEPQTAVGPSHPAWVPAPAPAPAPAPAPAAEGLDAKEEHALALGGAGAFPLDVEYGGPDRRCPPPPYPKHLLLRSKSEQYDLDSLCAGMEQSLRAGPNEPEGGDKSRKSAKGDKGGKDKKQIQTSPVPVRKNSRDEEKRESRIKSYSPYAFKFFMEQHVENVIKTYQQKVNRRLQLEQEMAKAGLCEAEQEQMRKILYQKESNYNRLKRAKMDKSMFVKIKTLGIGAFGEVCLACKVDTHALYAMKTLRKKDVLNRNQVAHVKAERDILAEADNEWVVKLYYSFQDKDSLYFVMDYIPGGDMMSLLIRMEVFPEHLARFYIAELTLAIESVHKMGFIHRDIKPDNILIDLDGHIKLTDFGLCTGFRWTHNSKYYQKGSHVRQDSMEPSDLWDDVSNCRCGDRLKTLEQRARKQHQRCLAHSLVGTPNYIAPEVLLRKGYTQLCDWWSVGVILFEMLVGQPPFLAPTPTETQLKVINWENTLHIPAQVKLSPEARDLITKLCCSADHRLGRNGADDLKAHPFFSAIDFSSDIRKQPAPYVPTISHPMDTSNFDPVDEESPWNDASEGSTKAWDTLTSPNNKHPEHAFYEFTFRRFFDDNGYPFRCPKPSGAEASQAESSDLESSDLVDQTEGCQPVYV
Protocol: (§1) Biochemical kinase inhibitory data was obtained for various exemplary compounds prepared according to the above.
(§2) The reagents used are as follows: Base Reaction buffer; 20 mM Hepes (pH 7.5), 10 mM MgCl2, 1 mM EGTA, 0.01% Brij35, 0.02 mg/ml BSA, 0.1 mM Na3VO4, 2 mM DTT, […]. Required cofactors were added individually to each kinase reaction.
(§3) The reaction procedure was as follows: • 1) Substrates were prepared in freshly prepared Reaction Buffer. • 2) Any required cofactors were delivered to the substrate solution above. • 3) Kinase was delivered into the substrate solution and gently mixed. • 4) Compounds were delivered in 100% DMSO into the kinase reaction mixture by Acoustic technology (Echo550; nanoliter range), followed by incubation for 20 min at room temp. • 5) ^33P-ATP was delivered into the reaction mixture to initiate the reaction. • 6) The mixture was incubated for 2 hours at room temperature. • 7) Kinase activity was detected by P81 filter-binding method.
(§4) Using the above functional assay, the inhibitory activity of the compounds for LATS1/2 versus AKT was characterized. The assays were typically run in a 10-point curve, in singlet, to produce a titration curve from which an IC50 value was obtained.
(§5) The reagents used are as follows: Base Reaction buffer; 20 mM Hepes (pH 7.5), 10 mM MgCl2, 1 mM EGTA, 0.01% Brij35, 0.02 mg/ml BSA, 0.1 mM Na3VO4, 2 mM DTT, 1% DMSO. Required cofactors were added individually to each kinase reaction.
(§6) Biochemical kinase inhibitory data was obtained for various exemplary compounds prepared according to the above in accordance with the protocols described in Examples 4 and 8. All biological activities are IC50, in nM.

AKT = AKT (Homo sapiens, UniProt P31749); assay: RBC HotSpot kinase assay (33P-ATP, P81 filter-binding), AKT; conditions: read-out: AKT IC50
Chain of AKT (P31749 whole entry): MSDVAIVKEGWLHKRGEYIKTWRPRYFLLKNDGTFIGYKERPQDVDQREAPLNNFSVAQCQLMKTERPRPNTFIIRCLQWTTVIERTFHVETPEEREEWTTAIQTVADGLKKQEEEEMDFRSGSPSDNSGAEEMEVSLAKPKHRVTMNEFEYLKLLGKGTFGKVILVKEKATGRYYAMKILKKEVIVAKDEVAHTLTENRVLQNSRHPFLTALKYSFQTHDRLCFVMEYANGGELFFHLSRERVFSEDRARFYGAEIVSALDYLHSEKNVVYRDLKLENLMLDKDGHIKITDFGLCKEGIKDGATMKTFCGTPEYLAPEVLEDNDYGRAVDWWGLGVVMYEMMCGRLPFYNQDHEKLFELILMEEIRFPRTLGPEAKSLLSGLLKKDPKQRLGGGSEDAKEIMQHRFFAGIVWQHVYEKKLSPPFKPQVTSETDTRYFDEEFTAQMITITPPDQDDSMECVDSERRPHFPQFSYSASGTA
Protocol: as §1, §2, §3, §4, §5, §6

LATS1 = target: T2, LATS1 (Homo sapiens, UniProt O95835); assay: RBC HotSpot kinase assay (33P-ATP, P81 filter-binding), LATS1; conditions: read-out: LATS1 IC50
T2 sequence (O95835 1-1130): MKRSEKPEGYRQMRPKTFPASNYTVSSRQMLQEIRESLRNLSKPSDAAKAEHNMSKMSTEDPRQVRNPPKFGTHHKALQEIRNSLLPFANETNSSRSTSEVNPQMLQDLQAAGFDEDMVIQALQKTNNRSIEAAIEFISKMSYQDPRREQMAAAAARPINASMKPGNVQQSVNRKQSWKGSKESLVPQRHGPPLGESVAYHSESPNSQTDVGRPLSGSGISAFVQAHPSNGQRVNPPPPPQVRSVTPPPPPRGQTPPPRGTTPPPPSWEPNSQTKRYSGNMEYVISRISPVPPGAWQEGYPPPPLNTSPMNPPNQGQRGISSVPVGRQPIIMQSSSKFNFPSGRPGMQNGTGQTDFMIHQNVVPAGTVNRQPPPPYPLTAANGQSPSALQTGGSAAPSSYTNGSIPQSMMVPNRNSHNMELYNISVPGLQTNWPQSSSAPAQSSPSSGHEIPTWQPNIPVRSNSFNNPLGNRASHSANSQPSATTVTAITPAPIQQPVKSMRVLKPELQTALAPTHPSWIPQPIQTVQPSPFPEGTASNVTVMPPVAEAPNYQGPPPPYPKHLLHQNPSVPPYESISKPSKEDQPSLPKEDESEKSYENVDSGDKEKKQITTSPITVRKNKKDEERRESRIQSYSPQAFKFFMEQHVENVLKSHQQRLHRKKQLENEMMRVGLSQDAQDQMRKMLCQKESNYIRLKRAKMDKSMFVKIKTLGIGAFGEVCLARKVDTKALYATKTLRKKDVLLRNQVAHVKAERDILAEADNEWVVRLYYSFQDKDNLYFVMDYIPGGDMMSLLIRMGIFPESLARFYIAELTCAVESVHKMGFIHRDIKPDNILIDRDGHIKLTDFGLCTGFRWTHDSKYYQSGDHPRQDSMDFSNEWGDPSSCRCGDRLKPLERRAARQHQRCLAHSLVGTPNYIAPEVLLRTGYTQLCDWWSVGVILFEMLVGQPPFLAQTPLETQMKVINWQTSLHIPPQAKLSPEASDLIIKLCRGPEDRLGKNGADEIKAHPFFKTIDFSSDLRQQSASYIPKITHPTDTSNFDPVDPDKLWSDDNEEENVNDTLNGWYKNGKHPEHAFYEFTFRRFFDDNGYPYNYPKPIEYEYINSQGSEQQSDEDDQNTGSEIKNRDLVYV
Protocol: as §1, §2, §3, §4, §5, §6

[1] = Table 28, biochemical kinase assay
[2] = Table 32, biochemical kinase assay

Cc1c[nH]c2nccc(-c3cc(F)c([C@@]4(O)[C@H](C)CNC[C@@H]4C)c(F)c3)c12 [Compound 15]
pIC50 (LATS2; [1]): 8.14 | pIC50 (AKT; [1]): 6.44 | pIC50 (LATS1; [1]): 8.07

FC(F)(F)c1cc(C2CCNCC2)ccc1-c1ccnc2[nH]ccc12 [Compound 182, 4-(4-(piperidin-4-yl)-2-(trifluoromethyl)phenyl)-1H-pyrrolo[2,3-b]pyridine]
pIC50 (LATS2; [1]): 5.75 | pIC50 (AKT; [1]): < 5.00 | pIC50 (LATS1; [1]): 5.80

Fc1ccc(CNCc2ccc(-c3ccnc4[nH]ccc34)cc2Cl)cc1 [Compound 282, N-(2-chloro-4-(1H-pyrrolo[2,3-b]pyridin-4-yl)benzyl)-1-(4-fluorophenyl) methanamine]
pIC50 (LATS2; [1]): 7.23 | pIC50 (AKT; [1]): 5.42 | pIC50 (LATS1; [1]): 7.50

O=C(C1CC1)N1CCC(c2ccc(-c3ccnc4[nH]cc(F)c34)cc2Cl)CC1 [Compound 160, (4-(2-chloro-4-(3-fluoro-1H-pyrrolo[2,3-b]pyridin-4-yl)phenyl)piperidin-1-yl)(cyclopropyl)methanone]
pIC50 (LATS2; [1]): 6.35 | pIC50 (AKT; [1]): < 5.00 | pIC50 (LATS1; [1]): 6.35

NCc1ccc(-c2cc(-c3ccncc3)nc3[nH]ccc23)cc1 [Compound 261, (4-(6-(pyridin-4-yl)-1H-pyrrolo[2,3-b]pyridin-4-yl)phenyl) methanamine]
pIC50 (LATS2; [1]): 8.00 | pIC50 (AKT; [1]): 5.05 | pIC50 (LATS1; [1]): 7.47

O=C([C@@H]1CCCN1)N1CC(O)(c2ccc(-c3ccnc4[nH]cc(F)c34)cc2Cl)C1 [Compound 144, (S)-4-(3-chloro-4-(3-hydroxy-1-prolylazetidin-3-yl)phenyl)-3-fluoro-1H-pyrrolo[2,3-b]pyridine]
pIC50 (LATS2; [1]): 7.59 | pIC50 (AKT; [1]): 5.56 | pIC50 (LATS1; [1]): 7.30

Cc1cc(-c2ccnc3[nH]cc(F)c23)ncc1[C@@]1(O)[C@H](C)CN(Cc2ccncc2)C[C@@H]1C [Compound 52, (3R,4s,5S)-4-(6-(3-fluoro-1H-pyrrolo[2,3-b]pyridin-4-yl)-4-methylpyridin-3-yl)-3,5-dimethyl-1-(pyridin-4-ylmethyl)piperidin-4-ol]
pIC50 (LATS2; [1]): 5.29 | pIC50 (AKT; [1]): < 5.00 | pIC50 (LATS1; [1]): 5.66

COc1cc(-c2ccnc3[nH]ccc23)ccc1C1CCNCC1 [Compound 180, 4-(3-methoxy-4-(piperidin-4-yl)phenyl)-1H-pyrrolo[2,3-b]pyridine]
pIC50 (LATS2; [1]): 7.08 | pIC50 (AKT; [1]): 5.59 | pIC50 (LATS1; [1]): 7.16

C[C@H](N)C(=O)NCC(O)(c1ccc(Cl)cc1)c1ccc(-c2ccnc3[nH]ccc23)cc1 (stereo partly drawn) [Compound 1026, (2S)-N-(2-(4-(1H-pyrrolo[2,3-b]pyridin-4-yl)phenyl)-2-(4-chlorophenyl)-2-hydroxyethyl)-2-aminopropanamide]
pIC50 (LATS2; [2]): 8.64 | pIC50 (AKT; [2]): 8.92 | pIC50 (LATS1; [2]): 8.42

C[C@@H]1CN(C2COC2)C[C@H](C)[C@@]1(O)c1ccc(-c2ccnc3[nH]cc(F)c23)cc1Cl [Compound 21, (3S,4s,5R)-4-(2-chloro-4-(3-fluoro-1H-pyrrolo[2,3-b]pyridin-4-yl)phenyl)-3,5-dimethyl-1-(oxetan-3-yl)piperidin-4-ol]
pIC50 (LATS2; [1]): 8.55 | pIC50 (AKT; [1]): 6.60 | pIC50 (LATS1; [1]): 8.52

c1cc(-c2ccc(C3CCCN3)cc2)c2cc[nH]c2n1 (stereo not drawn) [Compound 278, 4-(4-(pyrrolidin-2-yl)phenyl)-1H-pyrrolo[2,3-b]pyridine]
pIC50 (LATS2; [1]): 7.48 | pIC50 (AKT; [1]): 6.49 | pIC50 (LATS1; [1]): 7.77

COC(=O)c1c[nH]c2nccc(-c3ccc(C4(O)C[C@H]5CC[C@@H](C4)N5)cc3)c12 (stereo partly drawn) [Compound 113, methyl 4-(4-((1R,5S)-3-hydroxy-8-azabicyclo[3.2.1]octan-3-yl)phenyl)-1H-pyrrolo[2,3-b]pyridine-3-carboxylate]
pIC50 (LATS2; [1]): 7.18 | pIC50 (AKT; [1]): 5.97 | pIC50 (LATS1; [1]): 7.91

OC1(c2ccc(-c3ccnc4[nH]cc(Br)c34)cc2Cl)C[C@H]2CC[C@@H](C1)N2 (stereo partly drawn) [Compound 122, (1R,5S)-3-(4-(3-bromo-1H-pyrrolo[2,3-b]pyridin-4-yl)-2-chlorophenyl)-8-azabicyclo[3.2.1]octan-3-ol]
pIC50 (LATS2; [1]): 8.05 | pIC50 (AKT; [1]): 7.29 | pIC50 (LATS1; [1]): 8.28

Cc1cc(-c2ccnc3[nH]cc(F)c23)cc(F)c1C1(O)[C@H](C)CN(C2CCOC2)C[C@@H]1C (stereo partly drawn) [Compound 34, (3S,5R)-4-(2-fluoro-4-(3-fluoro-1H-pyrrolo[2,3-b]pyridin-4-yl)-6-methylphenyl)-3,5-dimethyl-1-(tetrahydrofuran-3-yl)piperidin-4-ol]
pIC50 (LATS2; [1]): 8.08 | pIC50 (AKT; [1]): 6.04 | pIC50 (LATS1; [1]): 7.84

FC(F)(F)Oc1cccc(CNCc2ccc(-c3ccnc4[nH]ccc34)cc2)c1 [Compound 285, N-(4-(1H-pyrrolo[2,3-b]pyridin-4-yl)benzyl)-1-(3-(trifluoromethoxy)phenyl) methanamine]
pIC50 (LATS2; [1]): 6.72 | pIC50 (AKT; [1]): 5.70 | pIC50 (LATS1; [1]): 6.78

CN1CCC(O)(c2ccc(-c3ccnc4[nH]cc(Br)c34)cc2)CC1 [Compound 124, 4-(4-(3-bromo-1H-pyrrolo[2,3-b]pyridin-4-yl)phenyl)-1-methylpiperidin-4-ol]
pIC50 (LATS2; [1]): 8.43 | pIC50 (AKT; [1]): 6.89 | pIC50 (LATS1; [1]): 8.24

NCc1ccc(-c2ccnc3[nH]cc(Cl)c23)cc1Cl [Compound 249, (2-chloro-4-(3-chloro-1H-pyrrolo[2,3-b]pyridin-4-yl)phenyl) methanamine]
pIC50 (LATS2; [1]): 8.10 | pIC50 (AKT; [1]): 6.66 | pIC50 (LATS1; [1]): 8.08

From patent publication US20250361230A1, “LATS Inhibitors and Uses Thereof” (The USA, as Represented by the Secretary, Dept. of Heath …, priority 2022, published 2025)
